Literature values in PubChem BioAssay AID1259409 (Chemical Carcinogenesis Research Information System (CCRIS), 2018).
Where a SMILES comes first, the peptide text is derived from it. [ ]: non-standard residue; d: D form. The star is where a group is joined. Sta = CC(C)C[C@H](N)[C@@H](O)CC(=O)O; Isovaleryl = CC(C)CC(=O)*

Tested on: rodent chemically induced tumor inhibition, incidence and multiplicity
Assay: CCRIS tumor inhibitor studies
Conditions: Species: MOUSE

Structure (SMILES): CC(C)CC(=O)N[C@H](C(=O)N[C@H](C(=O)N[C@@H](CC(C)C)[C@@H](O)CC(=O)N[C@@H](C)C(=O)N[C@@H](CC(C)C)[C@@H](O)CC(=O)O)C(C)C)C(C)C (Isovaleryl-VV[Sta]A[Sta]-OH)
- tumour outcome (control, treated, inhibition, significance) (Carcinogen: 1,2,3,4,5,6-HEXACHLOROCYCLOHEXANE, 319-84-6, Dose [Inhibitor]: 0.1% IN DIET FOR 12 WK FOLLOWING CARCINOGEN TREATMENT REGIMEN (STUDY DURATION: 48 WK), Route [Inhibitor]: ORAL, Strain/Sex: DDY/MALE, Target Tissue: Type of Lesion: LIVER: NODULAR HYPERPLASIA, Dose [Carcinogen]: 500 PPM IN DIET FOR 24 WK, Promoter: NONE USED): 1/13 (8%), 1/12 (8%), 0%, not significant
- tumour outcome (control, treated, inhibition, significance) (Carcinogen: N-BUTYL-N-(4-HYDROXY-BUTYL)NITROSAMINE, 3817-11-6, Dose [Inhibitor]: 0.1% IN DIET FOR 32 WK FOLLOWING CARCINOGEN TREATMENT REGIMEN (STUDY DURATION: 40 WK), Route [Inhibitor]: ORAL, Strain/Sex: ICR/MALE, Target Tissue: Type of Lesion: URINARY BLADDER: TUMOR, Dose [Carcinogen]: 0.05% IN DRINKING WATER FOR FIRST 8 WK, Promoter: NONE USED): 6/13 (46%), 8/10 (80%), -74%, not calculated

Structure (SMILES): CC1(C)[C@H](O)CC[C@]2(C)C3=CC[C@@]4(C)[C@@H]5C[C@](C)(CO)CC[C@]5(C)CC[C@]4(C)C3=CC[C@@H]12
- tumour outcome (control, treated, inhibition, significance) (Carcinogen: 7,12-DIMETHYLBENZ[A]ANTHRACENE, 57-97-6, Dose [Inhibitor]: 0, 2 UMOL IN 100 µL ACETONE:DMSO (9:1) 2/WK FOR 17 WK APPLIED 30 MIN PRIOR TO EACH PROMOTER DOSE (STUDY DURATION: 18 WK), Route [Inhibitor]: DERMAL, Strain/Sex: ICR/FEMALE, Target Tissue: Type of Lesion: SKIN: PAPILLOMA, Dose [Carcinogen]: 50 UG IN 100 µL ACETONE ONCE, Promoter: 12-O-TETRADECANOYLPHORBOL-13-ACETATE, 16561-29-8): 87%, 13%, 85%, not calculated

Structure (SMILES): COc1ccc(-c2oc3c(OC)c(OC)c(OC)c(OC)c3c(=O)c2OC)cc1OC
- tumour outcome (control, treated, inhibition, significance) (Carcinogen: 7,12-DIMETHYLBENZ[A]ANTHRACENE [57-97-6], Dose [Inhibitor]: 85 NMOL IN 0.1 ML ACETONE 2X/WK FOR 20 WK 1 HR PRIOR TO EACH PROMOTER DOSE (STUDY DURATION: 21 WK), Route [Inhibitor]: DERMAL, Strain/Sex: ICR/FEMALE, Target Tissue: Type of Lesion: SKIN: PAPILLOMA, Dose [Carcinogen]: 390 NMOL IN 0.1 ML ACETONE ONCE (STUDY DURATION: 21 WK), Promoter: 12-O-TETRADECANOYL-13-ACETATE [16561-29-8]): 100%, 80%, 20%, not calculated
